US20080051387A1, “TETRAHYDROPYRIDO[3,4-D]PYRIMIDINES AND RELATED ANALOGUES” (priority 2006, published 2008)

Target: T1, chimeric human H3 receptor (Homo sapiens, UniProt Q9Y5N1)
T1 construct: rat Galpha-i2 (Gnai2, rat); made in house; host or cells: Sf9 insect cells (baculovirus); P2 membranes
Assay: Chimeric human H3 receptor screening GTP binding assay (inhibition of histamine-stimulated GTP-gamma35S binding, Example 8)
Format: biochemical
Details: 1 h; assay described in Example 8; symbol "!" in column headed Ki; read-out: Ki ("!": percent inhibition of agonist-induced GTP-gammaS binding to H3)
Procedure, shortened: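 Sf9 membranes co-expressing chimeric human H3 receptor and heterotrimeric G-protein (35 μg protein) incubated 60 min at room temperature with 4 μM compound, 1 μM histamine and 125 pM GTP-gamma35S in pH 7.4 buffer with 10 μM GDP. Filter-bound radioactivity, nonspecific (10 μM GTP-gammaS) subtracted, reported as % inhibition of histamine signal.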

T1 sequence (Q9Y5N1 with tags, fused parts or gaps): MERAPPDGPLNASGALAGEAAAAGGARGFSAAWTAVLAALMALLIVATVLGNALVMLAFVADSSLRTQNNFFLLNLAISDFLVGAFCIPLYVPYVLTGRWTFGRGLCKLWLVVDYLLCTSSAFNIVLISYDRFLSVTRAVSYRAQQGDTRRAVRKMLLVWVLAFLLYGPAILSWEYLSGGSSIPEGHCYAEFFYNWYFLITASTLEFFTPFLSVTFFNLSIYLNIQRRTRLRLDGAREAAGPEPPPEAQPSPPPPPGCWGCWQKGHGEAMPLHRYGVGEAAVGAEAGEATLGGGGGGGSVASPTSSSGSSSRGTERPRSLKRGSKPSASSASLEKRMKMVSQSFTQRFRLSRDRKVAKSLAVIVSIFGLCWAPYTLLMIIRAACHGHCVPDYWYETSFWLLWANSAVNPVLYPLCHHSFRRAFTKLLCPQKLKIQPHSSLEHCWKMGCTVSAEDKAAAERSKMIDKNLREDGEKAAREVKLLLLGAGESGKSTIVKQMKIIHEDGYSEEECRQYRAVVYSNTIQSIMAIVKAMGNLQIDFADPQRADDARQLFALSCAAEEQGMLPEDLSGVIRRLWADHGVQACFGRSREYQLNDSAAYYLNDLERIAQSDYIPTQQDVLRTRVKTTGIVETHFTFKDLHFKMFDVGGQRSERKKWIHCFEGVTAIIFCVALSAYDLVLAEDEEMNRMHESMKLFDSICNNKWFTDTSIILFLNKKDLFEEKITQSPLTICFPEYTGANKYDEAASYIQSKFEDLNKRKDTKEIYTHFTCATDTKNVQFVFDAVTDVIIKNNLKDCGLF

| SMILES | inhibition at 4 µM |
| --- | --- |
| COc1cc(OC)cc(C(=O)N2CCc3cnc(N4CCN(C5CCC5)CC4)nc3CC2)c1 [Compound 381, 2-(4-cyclobutylpiperazin-1-yl)-7-(3,5-dimethoxybenzoyl)-6,7,8,9-tetrahydro-5H-pyrimido[4,5-d]azepine] | ≥ 90% |
| CCCCOc1ccc(C(=O)N2CCc3cnc(N4CCN(C5CCC5)CC4)nc3CC2)cc1 [Compound 382, 7-(4-butoxybenzoyl)-2-(4-cyclobutylpiperazin-1-yl)-6,7,8,9-tetrahydro-5H-pyrimido[4,5-d]azepine] | ≥ 90% |
| CCOc1ccc(C(=O)N2CCc3cnc(N4CCN(C5CCC5)CC4)nc3CC2)cc1OCC [Compound 383, 2-(4-cyclobutylpiperazin-1-yl)-7-(3,4-diethoxybenzoyl)-6,7,8,9-tetrahydro-5H-pyrimido[4,5-d]azepine] | ≥ 90% |
| COc1cc(C(=O)N2CCc3cnc(N4CCN(C5CCC5)CC4)nc3CC2)cc(OC)c1OC [Compound 384, 2-(4-cyclobutylpiperazin-1-yl)-7-(3,4,5-trimethoxybenzoyl)-6,7,8,9-tetrahydro-5H-pyrimido[4,5-d]azepine] | ≥ 90% |
| CCOc1cc(C(=O)N2CCc3cnc(N4CCN(C5CCC5)CC4)nc3CC2)cc(OCC)c1OCC [Compound 385, 2-(4-cyclobutylpiperazin-1-yl)-7-(3,4,5-triethoxybenzoyl)-6,7,8,9-tetrahydro-5H-pyrimido[4,5-d]azepine] | ≥ 90% |

Same assay, conditions: 1 h; assay of Example 8; symbol "!" in column headed Ki; read-out: percent inhibition of agonist-induced GTP-gammaS binding to H3

| SMILES | inhibition at 4 µM |
| --- | --- |
| O=C(c1ccc(Oc2ccccc2)cc1)N1CCc2cnc(N3CCN(C4CCC4)CC3)nc2CC1 [Compound 372, 2-(4-cyclobutylpiperazin-1-yl)-7-(4-phenoxybenzoyl)-6,7,8,9-tetrahydro-5H-pyrimido[4,5-d]azepine] | ≥ 90% |
| O=C(c1ccc(OC(F)(F)F)cc1)N1CCc2cnc(N3CCN(C4CCC4)CC3)nc2CC1 [Compound 373, 2-(4-cyclobutylpiperazin-1-yl)-7-[4-(trifluoromethoxy)benzoyl]-6,7,8,9-tetrahydro-5H-pyrimido[4,5-d]azepine] | ≥ 90% |
| O=C(c1cccc(Oc2ccccc2)c1)N1CCc2cnc(N3CCN(C4CCC4)CC3)nc2CC1 [Compound 374, 2-(4-cyclobutylpiperazin-1-yl)-7-(3-phenoxybenzoyl)-6,7,8,9-tetrahydro-5H-pyrimido[4,5-d]azepine] | ≥ 90% |
| O=C(c1ccc2c(c1)CCO2)N1CCc2cnc(N3CCN(C4CCC4)CC3)nc2CC1 [Compound 375, 2-(4-cyclobutylpiperazin-1-yl)-7-(2,3-dihydro-1-benzofuran-5-ylcarbonyl)-6,7,8,9-tetrahydro-5H-pyrimido[4,5-d]azepine] | ≥ 90% |
| COc1ccc(C(=O)N2CCc3cnc(N4CCN(C5CCC5)CC4)nc3CC2)cc1OC1CCCC1 [Compound 376, 2-(4-cyclobutylpiperazin-1-yl)-7-[3-(cyclopentyloxy)-4-methoxybenzoyl]-6,7,8,9-tetrahydro-5H-pyrimido[4,5-d]azepine] | ≥ 90% |
| O=C(c1ccc2c(c1)OCO2)N1CCc2cnc(N3CCN(C4CCC4)CC3)nc2CC1 [Compound 377, 7-(1,3-benzodioxol-5-ylcarbonyl)-2-(4-cyclobutylpiperazin-1-yl)-6,7,8,9-tetrahydro-5H-pyrimido[4,5-d]azepine] | ≥ 90% |
| COc1ccc(C(=O)N2CCc3cnc(N4CCN(C5CCC5)CC4)nc3CC2)cc1OC [Compound 378, 2-(4-cyclobutylpiperazin-1-yl)-7-(3,4-dimethoxybenzoyl)-6,7,8,9-tetrahydro-5H-pyrimido[4,5-d]azepine] | ≥ 90% |
| CCCOc1ccc(C(=O)N2CCc3cnc(N4CCN(C5CCC5)CC4)nc3CC2)cc1 [Compound 379, 2-(4-cyclobutylpiperazin-1-yl)-7-(4-propoxybenzoyl)-6,7,8,9-tetrahydro-5H-pyrimido[4,5-d]azepine] | ≥ 90% |
| CC(C)Oc1ccc(C(=O)N2CCc3cnc(N4CCN(C5CCC5)CC4)nc3CC2)cc1 [Compound 380, 2-(4-cyclobutylpiperazin-1-yl)-7-(4-isopropoxybenzoyl)-6,7,8,9-tetrahydro-5H-pyrimido[4,5-d]azepine] | ≥ 90% |
